Assay results as given in patent publication US12691070B2, “Cationic lipids and preparation method thereof” (RiboX Therapeutics HK Limited, priority 2023, dated 2026).

Tests used:
BALB/C mice = experiment: In vivo expression, whole-body luminescence (IVIS); details: cirRNA (SEQ ID NO: 1) LNPs, BALB/C mice
Protocol: 6-8 week old, female BALB/C mice were injected with 0.05 mg*kg-1 of RNA-LNPs encoding for firefly-luciferase by intravenous injection. At 6 hours post injection, animals were intraperitoneally injected with 15 mg/ml of Luciferin substrate and whole-body luminescence was determined by a bioluminescent in vivo imaging system (IVIS).

RAW 264.7 cells [1] = experiment: In vitro toxicity (CellTiter-Glo cell viability), RAW 264.7; type: cell-based; details: cirRNA (SEQ ID NO: 1) LNPs; RAW 264.7 cells;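 note: percent of untreated cells luminescence signal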
Summary of the method: (§1)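 Viability after a 72 h incubation with 1 μg/mL RNA-LNP formulations was assessed luminometrically using CellTiter-Glo.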

RAW 264.7 cells [2] = experiment: In vitro expression of firefly-luciferase, RAW 264.7; type: cell-based; details: cirRNA (SEQ ID NO: 1) LNPs; firefly-luciferase luminescence; RAW 264.7 cells
Summary of the method: (§2)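 Luminescence from cell lysates reports expression: luciferase activity was measured 72 h after transfection with 100 ng/mL RNA-LNPs encoding firefly luciferase.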

[3] = LNP size and polydispersity index (PDI) by dynamic light scattering; type: physicochemical; details: LNP with cirRNA (SEQ ID NO: 1); for Size: in nm (unit assumed)
Summary of the method: (§3)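 Ribogreen fluorescence with and without Triton X-100 gave encapsulation as 100% − (intact/lysed) signal; DLS size, PDI and zeta potential measured on a Zetasizer. Particles: 50:10:38.5:1.5 lipid mix, luciferase circRNA or mRNA, lipid:nucleotide 15 or 6, microfluidic assembly at pH 4.5, PBS-dialyzed.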

[4] = LNP zeta potential (Zetasizer); type: physicochemical; details: LNP with cirRNA (SEQ ID NO: 1)
Summary of the method: as §3

[5] = RNA encapsulation efficacy by Quant-IT Ribogreen kit; type: physicochemical; details: LNP with cirRNA (SEQ ID NO: 1)
Summary of the method: as §3

Hep G2 cells [6] = experiment: In vitro toxicity (CellTiter-Glo cell viability), Hep G2; type: cell-based; details: cirRNA (SEQ ID NO: 1) LNPs; Hep G2 cells;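 note: percent of untreated cells luminescence signal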
Summary of the method: as §1

Hep G2 cells [7] = experiment: In vitro expression of firefly-luciferase, Hep G2; type: cell-based; details: cirRNA (SEQ ID NO: 1) LNPs; firefly-luciferase luminescence; Hep G2 cells
Summary of the method: as §2

PDI [3] | Size [3] | Zeta (mV) [4] [mV] | Encapsulation Efficiency % [5] [%] | SMILES | In vivo Expression (Whole Body) (BALB/C mice) | In vitro Viability RAW (RAW 264.7 cells [1]) [%] | In vitro Expression RAW (RAW 264.7 cells [2]) | In vitro Viability HepG2 (Hep G2 cells [6]) [%] | In vitro Expression HepG2 (Hep G2 cells [7])
0.2952 | 114.2 | 13.22 | 94 | CCCCCCCC/C=C\CCCCCCCCN(CCCCCCCCOC(=O)C(CCCCCC)CCCCCCCC)CCOC(=O)NCCCN(CC)CC (stereo not drawn) [Lipid 213] | 2.11E+06 | 90 | 2.06E+04 | 74 | 6.40E+06
0.304 | 76.43 | 5.906 | 96 | CCCCCCCC/C=C\CCCCCCCCN(CCCCCCCCOC(=O)C(CCCCCC)CCCCCCCC)CCOC(=O)NCCN1CCN(C)CC1 (stereo not drawn) [Lipid 214] | 1.18E+06 | 87 | 1.20E+05 | 83 | 3.88E+06
0.05226 | 62.22 | −3.755 | 96 | CCCCCCCC/C=C\CCCCCCCCN(CCCCCCCCOC(=O)C(CCCCCC)CCCCCCCC)CCOC(=O)NCCN1CCOCC1 (stereo not drawn) [Lipid 215] | 1.61E+07 | 86 | 7.31E+03 | 85 | 5.62E+04
0.4093 | 75.92 | 11.61 | 96 | CCCCCCCC/C=C\CCCCCCCCN(CCCCCCCCOC(=O)C(CCCCCC)CCCCCCCC)CCOC(=O)NCCCN(C)C (stereo not drawn) [Lipid 216] | 1.34E+06 | 75 | 3.31E+05 | 76 | 1.59E+07
0.1439 | 60.05 | 1.061 | 94 | CCCCCCCC/C=C\CCCCCCCCN(CCCCCCCCOC(=O)C(CCCCCC)CCCCCCCC)CCOC(=O)NCCCn1ccnc1 (stereo not drawn) [Lipid 217] | 7.35E+06 | 90 | 8.05E+03 | 82 | 2.45E+04
0.3124 | 96.36 | 5.94 | 96 | CCCCCCCC/C=C\CCCCCCCCN(CCCCCCCCOC(=O)C(CCCCCC)CCCCCCCC)CCOC(=O)NCCN1CCCC1 (stereo not drawn) [Lipid 218] | 7.53E+07 | 62 | 9.16E+04 | 71 | 5.25E+06
0.1125 | 76.57 | 0.7668 | 93 | CCCCCCCC/C=C\CCCCCCCCN(CCCCCCCCOC(=O)C(CCCCCC)CCCCCCCC)CCOC(=O)NCCN1CCCCC1 (stereo not drawn) [Lipid 219] | 1.34E+08 | 80 | 3.53E+04 | 58 | 7.09E+05
0.304 | 112.7 | 10.78 | 96 | CCCCCCCCCCCOC(=O)CCCCCN(CCCCCCCCOC(=O)C(CCCCCC)CCCCCCCC)CCOC(=O)NCCN(C)C (stereo not drawn) [Lipid 220] | 1.45E+07 | 98 | 1.52E+04 | 89 | 3.55E+06
0.1852 | 65.7 | −1.368 | 91 | CCCCCCCCCCCOC(=O)CCCCCN(CCCCCCCCOC(=O)C(CCCCCC)CCCCCCCC)CCOC(=O)NCc1ncc[nH]1 (stereo not drawn) [Lipid 221] | 1.79E+07 | 83 | 5.03E+05 | 87 | 2.82E+05
0.4109 | 98.73 | 26.75 | 97 | CCCCCCCCCCCOC(=O)CCCCCN(CCCCCCCCOC(=O)C(CCCCCC)CCCCCCCC)CCOC(=O)NCCN1CCN(C)CC1 (stereo not drawn) [Lipid 222] | 1.59E+06 | 87 | 8.85E+04 | 42 | 1.63E+06
0.08837 | 60.01 | −2.046 | 92 | CCCCCCCCCCCOC(=O)CCCCCN(CCCCCCCCOC(=O)C(CCCCCC)CCCCCCCC)CCOC(=O)NCCN1CCOCC1 (stereo not drawn) [Lipid 223] | 5.53E+06 | 76 | 4.76E+04 | 92 | 6.42E+04
0.4284 | 86.14 | 27.23 | 97 | CCCCCCCCCCCOC(=O)CCCCCN(CCCCCCCCOC(=O)C(CCCCCC)CCCCCCCC)CCOC(=O)NCCCN(C)C (stereo not drawn) [Lipid 224] | 5.05E+05 | 73 | 6.89E+03 | 90 | 3.58E+05
0.298 | 115.7 | 14.86 | 95 | CCCCCCCCCCCOC(=O)CCCCCN(CCCCCCCCOC(=O)C(CCCCCC)CCCCCCCC)CCOC(=O)NCCN1CCCC1 (stereo not drawn) [Lipid 226] | 2.20E+07 | 108 | 9.79E+03 | 91 | 7.79E+05
0.1088 | 79.97 | 4.217 | 92 | CCCCCCCCCCCOC(=O)CCCCCN(CCCCCCCCOC(=O)C(CCCCCC)CCCCCCCC)CCOC(=O)NCCN1CCCCC1 (stereo not drawn) [Lipid 227] | 9.21E+07 | 83 | 1.99E+05 | 82 | 4.71E+05
0.3577 | 87.4 | −0.164 | 96 | CCCCC/C=C\CCOC(=O)CCCCCN(CCCCCC(=O)OCC(CCCCCCCC)CCCCCCCCCC)CCOC(=O)NCCN1CCCC1 (stereo not drawn) [Lipid 244] | 3.95E+07 | 90 | 9.56E+02 | 94 | 3.62E+06
0.3463 | 74.91 | 5.434 | 95 | CCCCC/C=C\C/C=C\CCCCCCCCN(CCCCCCCC(=O)OC(CCCCCCCC)CCCCCCCC)CCCOC(=O)NCCCN(CC)CC [Lipid 272] | 6.35E+06 | 121 | 1.34E+06 | 97 | 1.01E+07
